According to patent US7118895B2, “Process for producing aglycon by using diglycosidase and flavor-improved food containing the aglycon and converting agent to be used in the process” (Amano Enzyme Inc., priority 2000, dated 2006):

Test system: Crude diglycosidase
Assay: Examination of pH in the conversion into isoflavone aglycons by diglycosidase using soybean materials
Type: biochemical, Penicillium multicolor IAM7153
Conditions: for Decomposition efficiency of glycitin family in roasted soy flour / Decomposition efficiency of glycitin family in soymilk: 55° C.
Outline: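 Each soybean material (50 mg) is suspended and set to a pH between 2 and 11. Crude diglycosidase, adjusted to 1.88 AU/mL in enzyme solution of the same pH, is added, and the mixture is incubated at 55° C. Ethanol is added at 0, 1, 3 and 6 h, then supernatants go to HPLC.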

[1] = pH6.6, heat treatment of enzyme: no, reaction time 0 h
[2] = pH6.6, heat treatment of enzyme: no, reaction time 1 h
[3] = pH6.6, heat treatment of enzyme: no, reaction time 3 h
[4] = pH6.6, heat treatment of enzyme: no, reaction time 6 h
[5] = pH6.6, heat treatment of enzyme: yes, reaction time 6 h

SMILES: COc1cc2c(=O)c(-c3ccc(O)cc3)coc2cc1O[C@@H]1O[C@H](COC(C)=O)[C@@H](O)[C@H](O)[C@H]1O [acetylglycitin, 6″-O-acetylglycitin]
- Decomposition efficiency of glycitin family in concentrated soybean protein (pH1.6, heat treatment of enzyme: no, reaction time 0 h): 35.9%
- Decomposition efficiency of glycitin family in concentrated soybean protein (pH1.6, heat treatment of enzyme: no, reaction time 1 h): 35.1%
- Decomposition efficiency of glycitin family in concentrated soybean protein (pH1.6, heat treatment of enzyme: no, reaction time 3 h): 33.5%
- Decomposition efficiency of glycitin family in concentrated soybean protein (pH1.6, heat treatment of enzyme: no, reaction time 6 h): 31.8%
- Decomposition efficiency of glycitin family in concentrated soybean protein (pH1.6, heat treatment of enzyme: yes, reaction time 6 h): 30.9%
- Decomposition efficiency of glycitin family in roasted soy flour (pH2, heat treatment of enzyme no, reaction time 0 h): 35.3
- Decomposition efficiency of glycitin family in roasted soy flour (pH2, heat treatment of enzyme no, reaction time 1 h): 34.0
- Decomposition efficiency of glycitin family in roasted soy flour (pH2, heat treatment of enzyme no, reaction time 3 h): 34.2
- Decomposition efficiency of glycitin family in roasted soy flour (pH2, heat treatment of enzyme no, reaction time 6 h): 35.5
- Decomposition efficiency of glycitin family in roasted soy flour (pH2, heat treatment of enzyme yes, reaction time 6 h): 35.2
- Decomposition efficiency of glycitin family in soymilk (pH2.3, heat treatment of enzyme no, reaction time 0 h): not detected
- Decomposition efficiency of glycitin family in soymilk (pH2.3, heat treatment of enzyme no, reaction time 1 h): not detected
- Decomposition efficiency of glycitin family in soymilk (pH2.3, heat treatment of enzyme no, reaction time 3 h): not detected
- Decomposition efficiency of glycitin family in soymilk (pH2.3, heat treatment of enzyme no, reaction time 6 h): not detected
- Decomposition efficiency of glycitin family in soymilk (pH2.3, heat treatment of enzyme yes, reaction time 6 h): not detected
- Decomposition efficiency of glycitin family in defatted soybean (pH2.6, heat treatment of enzyme: no, reaction time 0 h): not detected
- Decomposition efficiency of glycitin family in defatted soybean (pH2.6, heat treatment of enzyme: no, reaction time 1 h): not detected
- Decomposition efficiency of glycitin family in defatted soybean (pH2.6, heat treatment of enzyme: no, reaction time 3 h): not detected
- Decomposition efficiency of glycitin family in defatted soybean (pH2.6, heat treatment of enzyme: no, reaction time 6 h): not detected
- Decomposition efficiency of glycitin family in defatted soybean (pH2.6, heat treatment of enzyme: yes, reaction time 6 h): not detected
- Decomposition efficiency of glycitin family in concentrated soybean protein (pH2.7, heat treatment of enzyme: no, reaction time 0 h): 35.9%
- Decomposition efficiency of glycitin family in concentrated soybean protein (pH2.7, heat treatment of enzyme: no, reaction time 1 h): 36.6%
- Decomposition efficiency of glycitin family in concentrated soybean protein (pH2.7, heat treatment of enzyme: no, reaction time 3 h): 36.5%
- Decomposition efficiency of glycitin family in concentrated soybean protein (pH2.7, heat treatment of enzyme: no, reaction time 6 h): 36.6%
- Decomposition efficiency of glycitin family in concentrated soybean protein (pH2.7, heat treatment of enzyme: yes, reaction time 6 h): 35.4%
- Decomposition efficiency of glycitin family in roasted soy flour (pH3, heat treatment of enzyme no, reaction time 0 h): 35.3
- Decomposition efficiency of glycitin family in roasted soy flour (pH3, heat treatment of enzyme no, reaction time 1 h): 38.7
- Decomposition efficiency of glycitin family in roasted soy flour (pH3, heat treatment of enzyme no, reaction time 3 h): 30.8
- Decomposition efficiency of glycitin family in roasted soy flour (pH3, heat treatment of enzyme no, reaction time 6 h): 31.7
- Decomposition efficiency of glycitin family in roasted soy flour (pH3, heat treatment of enzyme yes, reaction time 6 h): 35.6
- Decomposition efficiency of glycitin family in defatted soybean (pH3.4, heat treatment of enzyme: no, reaction time 0 h): not detected
- Decomposition efficiency of glycitin family in defatted soybean (pH3.4, heat treatment of enzyme: no, reaction time 1 h): not detected
- Decomposition efficiency of glycitin family in defatted soybean (pH3.4, heat treatment of enzyme: no, reaction time 3 h): not detected
- Decomposition efficiency of glycitin family in defatted soybean (pH3.4, heat treatment of enzyme: no, reaction time 6 h): not detected
- Decomposition efficiency of glycitin family in defatted soybean (pH3.4, heat treatment of enzyme: yes, reaction time 6 h): not detected
- Decomposition efficiency of glycitin family in soymilk (pH3.5, heat treatment of enzyme no, reaction time 0 h): not detected
- Decomposition efficiency of glycitin family in soymilk (pH3.5, heat treatment of enzyme no, reaction time 1 h): not detected
- Decomposition efficiency of glycitin family in soymilk (pH3.5, heat treatment of enzyme no, reaction time 3 h): not detected
- Decomposition efficiency of glycitin family in soymilk (pH3.5, heat treatment of enzyme no, reaction time 6 h): not detected
- Decomposition efficiency of glycitin family in soymilk (pH3.5, heat treatment of enzyme yes, reaction time 6 h): not detected
- Decomposition efficiency of glycitin family in concentrated soybean protein (pH3.7, heat treatment of enzyme: no, reaction time 0 h): 36.1%
- Decomposition efficiency of glycitin family in concentrated soybean protein (pH3.7, heat treatment of enzyme: no, reaction time 1 h): 32.9%
- Decomposition efficiency of glycitin family in concentrated soybean protein (pH3.7, heat treatment of enzyme: no, reaction time 3 h): 26.1%
- Decomposition efficiency of glycitin family in concentrated soybean protein (pH3.7, heat treatment of enzyme: no, reaction time 6 h): 22.1%
- Decomposition efficiency of glycitin family in concentrated soybean protein (pH3.7, heat treatment of enzyme: yes, reaction time 6 h): 35.9%
- Decomposition efficiency of glycitin family in roasted soy flour (pH4, heat treatment of enzyme no, reaction time 0 h): 34.8
- Decomposition efficiency of glycitin family in roasted soy flour (pH4, heat treatment of enzyme no, reaction time 1 h): 18.8
- Decomposition efficiency of glycitin family in roasted soy flour (pH4, heat treatment of enzyme no, reaction time 3 h): 8.2
- Decomposition efficiency of glycitin family in roasted soy flour (pH4, heat treatment of enzyme no, reaction time 6 h): not detected
- Decomposition efficiency of glycitin family in roasted soy flour (pH4, heat treatment of enzyme yes, reaction time 6 h): 35.9
- Decomposition efficiency of glycitin family in soymilk (pH4.8, heat treatment of enzyme no, reaction time 0 h): not detected
- Decomposition efficiency of glycitin family in soymilk (pH4.8, heat treatment of enzyme no, reaction time 1 h): not detected
- Decomposition efficiency of glycitin family in soymilk (pH4.8, heat treatment of enzyme no, reaction time 3 h): not detected
- Decomposition efficiency of glycitin family in soymilk (pH4.8, heat treatment of enzyme no, reaction time 6 h): not detected
- Decomposition efficiency of glycitin family in soymilk (pH4.8, heat treatment of enzyme yes, reaction time 6 h): not detected
- Decomposition efficiency of glycitin family in defatted soybean (pH4.8, heat treatment of enzyme: no, reaction time 0 h): not detected
- Decomposition efficiency of glycitin family in defatted soybean (pH4.8, heat treatment of enzyme: no, reaction time 1 h): not detected
- Decomposition efficiency of glycitin family in defatted soybean (pH4.8, heat treatment of enzyme: no, reaction time 3 h): not detected
- Decomposition efficiency of glycitin family in defatted soybean (pH4.8, heat treatment of enzyme: no, reaction time 6 h): not detected
- Decomposition efficiency of glycitin family in defatted soybean (pH4.8, heat treatment of enzyme: yes, reaction time 6 h): not detected
- Decomposition efficiency of glycitin family in roasted soy flour (pH5, heat treatment of enzyme no, reaction time 0 h): 34.8
- Decomposition efficiency of glycitin family in roasted soy flour (pH5, heat treatment of enzyme no, reaction time 1 h): 22.9
- Decomposition efficiency of glycitin family in roasted soy flour (pH5, heat treatment of enzyme no, reaction time 3 h): 6.5
- Decomposition efficiency of glycitin family in roasted soy flour (pH5, heat treatment of enzyme no, reaction time 6 h): not detected
- Decomposition efficiency of glycitin family in roasted soy flour (pH5, heat treatment of enzyme yes, reaction time 6 h): 35.2
- Decomposition efficiency of glycitin family in concentrated soybean protein (pH5.1, heat treatment of enzyme: no, reaction time 0 h): 36.1%
- Decomposition efficiency of glycitin family in concentrated soybean protein (pH5.1, heat treatment of enzyme: no, reaction time 1 h): 33.2%
- Decomposition efficiency of glycitin family in concentrated soybean protein (pH5.1, heat treatment of enzyme: no, reaction time 3 h): 26.0%
- Decomposition efficiency of glycitin family in concentrated soybean protein (pH5.1, heat treatment of enzyme: no, reaction time 6 h): 21.0%
- Decomposition efficiency of glycitin family in concentrated soybean protein (pH5.1, heat treatment of enzyme: yes, reaction time 6 h): 35.8%
- Decomposition efficiency of glycitin family in defatted soybean (pH5.4, heat treatment of enzyme: no, reaction time 0 h): not detected
- Decomposition efficiency of glycitin family in defatted soybean (pH5.4, heat treatment of enzyme: no, reaction time 1 h): not detected
- Decomposition efficiency of glycitin family in defatted soybean (pH5.4, heat treatment of enzyme: no, reaction time 3 h): not detected
- Decomposition efficiency of glycitin family in defatted soybean (pH5.4, heat treatment of enzyme: no, reaction time 6 h): not detected
- Decomposition efficiency of glycitin family in defatted soybean (pH5.4, heat treatment of enzyme: yes, reaction time 6 h): not detected
- Decomposition efficiency of glycitin family in soymilk (pH6.2, heat treatment of enzyme no, reaction time 0 h): not detected
- Decomposition efficiency of glycitin family in soymilk (pH6.2, heat treatment of enzyme no, reaction time 1 h): not detected
- Decomposition efficiency of glycitin family in soymilk (pH6.2, heat treatment of enzyme no, reaction time 3 h): not detected
- Decomposition efficiency of glycitin family in soymilk (pH6.2, heat treatment of enzyme no, reaction time 6 h): not detected
- Decomposition efficiency of glycitin family in soymilk (pH6.2, heat treatment of enzyme yes, reaction time 6 h): not detected
- Decomposition efficiency of glycitin family in roasted soy flour (pH6.5, heat treatment of enzyme no, reaction time 0 h): 35.4
- Decomposition efficiency of glycitin family in roasted soy flour (pH6.5, heat treatment of enzyme no, reaction time 1 h): 35.0
- Decomposition efficiency of glycitin family in roasted soy flour (pH6.5, heat treatment of enzyme no, reaction time 3 h): 19.7
- Decomposition efficiency of glycitin family in roasted soy flour (pH6.5, heat treatment of enzyme no, reaction time 6 h): 11.9
- Decomposition efficiency of glycitin family in roasted soy flour (pH6.5, heat treatment of enzyme yes, reaction time 6 h): 35.4
- Decomposition efficiency of glycitin family in concentrated soybean protein [1]: 36.1%
- Decomposition efficiency of glycitin family in defatted soybean [1]: not detected
- Decomposition efficiency of glycitin family in concentrated soybean protein [2]: 34.8%
- Decomposition efficiency of glycitin family in defatted soybean [2]: not detected
- Decomposition efficiency of glycitin family in concentrated soybean protein [3]: 32.4%
- Decomposition efficiency of glycitin family in defatted soybean [3]: not detected
- Decomposition efficiency of glycitin family in concentrated soybean protein [4]: 29.5%
- Decomposition efficiency of glycitin family in defatted soybean [4]: not detected
- Decomposition efficiency of glycitin family in concentrated soybean protein [5]: 35.2%
- Decomposition efficiency of glycitin family in defatted soybean [5]: not detected
- Decomposition efficiency of glycitin family in soymilk (pH7.2, heat treatment of enzyme no, reaction time 0 h): not detected
- Decomposition efficiency of glycitin family in soymilk (pH7.2, heat treatment of enzyme no, reaction time 1 h): not detected
- Decomposition efficiency of glycitin family in soymilk (pH7.2, heat treatment of enzyme no, reaction time 3 h): not detected
- Decomposition efficiency of glycitin family in soymilk (pH7.2, heat treatment of enzyme no, reaction time 6 h): not detected
- Decomposition efficiency of glycitin family in soymilk (pH7.2, heat treatment of enzyme yes, reaction time 6 h): not detected
- Decomposition efficiency of glycitin family in defatted soybean (pH7.8, heat treatment of enzyme: no, reaction time 0 h): not detected
- Decomposition efficiency of glycitin family in defatted soybean (pH7.8, heat treatment of enzyme: no, reaction time 1 h): not detected
- Decomposition efficiency of glycitin family in defatted soybean (pH7.8, heat treatment of enzyme: no, reaction time 3 h): not detected
- Decomposition efficiency of glycitin family in defatted soybean (pH7.8, heat treatment of enzyme: no, reaction time 6 h): not detected
- Decomposition efficiency of glycitin family in defatted soybean (pH7.8, heat treatment of enzyme: yes, reaction time 6 h): not detected
- Decomposition efficiency of glycitin family in roasted soy flour (pH8.5, heat treatment of enzyme no, reaction time 0 h): 31.0
- Decomposition efficiency of glycitin family in roasted soy flour (pH8.5, heat treatment of enzyme no, reaction time 1 h): 32.4
- Decomposition efficiency of glycitin family in roasted soy flour (pH8.5, heat treatment of enzyme no, reaction time 3 h): 30.6
- Decomposition efficiency of glycitin family in roasted soy flour (pH8.5, heat treatment of enzyme no, reaction time 6 h): 30.2
- Decomposition efficiency of glycitin family in roasted soy flour (pH8.5, heat treatment of enzyme yes, reaction time 6 h): 31.7
- Decomposition efficiency of glycitin family in concentrated soybean protein (pH8.6, heat treatment of enzyme: no, reaction time 0 h): 33.0%
- Decomposition efficiency of glycitin family in concentrated soybean protein (pH8.6, heat treatment of enzyme: no, reaction time 1 h): 32.6%
- Decomposition efficiency of glycitin family in concentrated soybean protein (pH8.6, heat treatment of enzyme: no, reaction time 3 h): 32.6%
- Decomposition efficiency of glycitin family in concentrated soybean protein (pH8.6, heat treatment of enzyme: no, reaction time 6 h): 32.0%
- Decomposition efficiency of glycitin family in concentrated soybean protein (pH8.6, heat treatment of enzyme: yes, reaction time 6 h): 31.6%
- Decomposition efficiency of glycitin family in soymilk (pH11.6, heat treatment of enzyme no, reaction time 0 h): not detected
- Decomposition efficiency of glycitin family in soymilk (pH11.6, heat treatment of enzyme no, reaction time 1 h): not detected
- Decomposition efficiency of glycitin family in soymilk (pH11.6, heat treatment of enzyme no, reaction time 3 h): not detected
- Decomposition efficiency of glycitin family in soymilk (pH11.6, heat treatment of enzyme no, reaction time 6 h): not detected
- Decomposition efficiency of glycitin family in soymilk (pH11.6, heat treatment of enzyme yes, reaction time 6 h): not detected
